Measured values reported in PubChem BioAssay AID1259407 (Chemical Carcinogenesis Research Information System (CCRIS), 2018).
Active and inactive are the calls of the source. No rule for the calls is given here.

Tested on: CCRIS mutagenicity, Ames/micronucleus/aberration tests
Experiment: CCRIS mutagenicity studies
[1] = Test System: AMES SALMONELLA TYPHIMURIUM, Strain/Indicator: TA97, Metabolic Activation: NONE, Method: PREINCUBATION
[2] = Test System: AMES SALMONELLA TYPHIMURIUM, Strain/Indicator: TA100, Metabolic Activation: NONE, Method: PREINCUBATION
[3] = Test System: AMES SALMONELLA TYPHIMURIUM, Strain/Indicator: TA100, Metabolic Activation: NONE, Method: FLUCTUATION TEST
[4] = Test System: AMES SALMONELLA TYPHIMURIUM, Strain/Indicator: TA98, Metabolic Activation: NONE, Method: STANDARD PLATE
[5] = Test System: AMES SALMONELLA TYPHIMURIUM, Strain/Indicator: TA98, Metabolic Activation: RAT, LIVER, S-9, AROCLOR 1254, Method: STANDARD PLATE
[6] = Test System: AMES SALMONELLA TYPHIMURIUM, Strain/Indicator: TA100, Metabolic Activation: NONE, Method: STANDARD PLATE
[7] = Test System: AMES SALMONELLA TYPHIMURIUM, Strain/Indicator: TA100, Metabolic Activation: RAT, LIVER, S-9, AROCLOR 1254, Method: STANDARD PLATE

With `C=C1C[C@@]23CC[C@H]4[C@@](C)(CCC[C@@]4(C)C(=O)O[C@@H]4O[C@H](CO)[C@@H](O)[C@H](O)[C@H]4O)[C@@H]2CC[C@]1(O[C@@H]1O[C@H](CO)[C@@H](O)[C@H](O)[C@H]1O[C@@H]1O[C@H](CO)[C@@H](O)[C@H](O)[C@H]1O)C3` the mutagenic call [1] was “inactive; negative”, the mutagenic call (Test System: AMES SALMONELLA TYPHIMURIUM, Strain/Indicator: TA97, Metabolic Activation: RAT, LIVER, S-9, PCB, Method: PREINCUBATION) was “inactive; negative” and the mutagenic call (Test System: AMES SALMONELLA TYPHIMURIUM, Strain/Indicator: TA98, Metabolic Activation: RAT, LIVER, S-9, PCB, Method: PREINCUBATION) was “inactive; negative”. For the same compound, the mutagenic call (Test System: AMES SALMONELLA TYPHIMURIUM, Strain/Indicator: TA98, Metabolic Activation: RAT, LIVER, S-9, SODIUM PHENOBARBITAL AND 5,6-BENZOFLAVONE, Method: PREINCUBATION) was “active; positive”, the mutagenic call [2] was “inactive; negative” and the mutagenic call (Test System: AMES SALMONELLA TYPHIMURIUM, Strain/Indicator: TA100, Metabolic Activation: RAT, LIVER, S-9, PCB, Method: PREINCUBATION) was “inactive; negative”. The mutagenic call (Test System: AMES SALMONELLA TYPHIMURIUM, Strain/Indicator: TA100, Metabolic Activation: RAT, LIVER, S-9, SODIUM PHENOBARBITAL AND 5,6-BENZOFLAVONE, Method: PREINCUBATION) was “inactive; negative”, the mutagenic call (Test System: AMES SALMONELLA TYPHIMURIUM, Strain/Indicator: TA102, Metabolic Activation: NONE, Method: PREINCUBATION) was “inactive; negative” and the mutagenic call (Test System: AMES SALMONELLA TYPHIMURIUM, Strain/Indicator: TA102, Metabolic Activation: RAT, LIVER, S-9, PCB, Method: PREINCUBATION) was “inactive; negative”. For the same compound, the mutagenic call (Test System: AMES SALMONELLA TYPHIMURIUM, Strain/Indicator: TA104, Metabolic Activation: NONE, Method: PREINCUBATION) was “inactive; negative”, the mutagenic call (Test System: AMES SALMONELLA TYPHIMURIUM, Strain/Indicator: TA104, Metabolic Activation: RAT, LIVER, S-9, PCB, Method: PREINCUBATION) was “inactive; negative” and the mutagenic call (Test System: AMES SALMONELLA TYPHIMURIUM, Strain/Indicator: TM677, Metabolic Activation: RAT, LIVER, S-9, AROCLOR 1254, Method: PREINCUBATION) was “inactive; negative”.
In the case of `[O]=[V](=[O])[OH]`, the mutagenic call [3] is reported as “active; positive”, the mutagenic call (Test System: AMES SALMONELLA TYPHIMURIUM, Strain/Indicator: TA1535, Metabolic Activation: NONE, Method: STANDARD PLATE (PH 7.8, MEDIUM WITH TRIMETAPHOSPHATE IONS)) is reported as “active; positive” and the mutagenic call (Test System: CHINESE HAMSTER G12, Strain/Indicator: G12/6-THIOGUANINE, Metabolic Activation: NONE) is reported as “active; positive”. For the same compound, the mutagenic call (Test System: CHINESE HAMSTER V-79, Strain/Indicator: V-79/6-THIOGUANINE, Metabolic Activation: MOUSE, LIVER, S-9) was “inactive; negative” and the mutagenic call (Test System: E. COLI, Strain/Indicator: WP2 UVRA, Metabolic Activation: NONE, Method: SPOT TEST) was “inactive; negative”.
In the case of `Cl/C=C(/Cl)c1c(Cl)c(Cl)c(Cl)c(Cl)c1Cl`, the mutagenic call [4] is reported as “inactive; negative”, the mutagenic call [5] is reported as “inactive; negative” and the mutagenic call [6] is reported as “inactive; negative”. The mutagenic call [7] was “inactive; negative”.
With `N#CC(Cl)Cl` the mutagenic call [4] was “active; positive”, the mutagenic call [5] was “active; positive” and the mutagenic call (Test System: AMES SALMONELLA TYPHIMURIUM, Strain/Indicator: TA98, Metabolic Activation: RAT, LIVER, S-9, PHENOBARBITAL AND 5,6-BENZOFLAVONE, Method: PREINCUBATION) was “inactive; negative”. The mutagenic call [3] was “active; positive”, the mutagenic call [2] was “active; positive” and the mutagenic call [6] was “active; positive”. The mutagenic call (Test System: AMES SALMONELLA TYPHIMURIUM, Strain/Indicator: TA100, Metabolic Activation: RAT, LIVER, S-9, AROCLOR 1254, Method: FLUCTUATION TEST) was “active; positive”, the mutagenic call [7] was “active; positive” and the mutagenic call (Test System: AMES SALMONELLA TYPHIMURIUM, Strain/Indicator: TA100, Metabolic Activation: RAT, LIVER, S-9, PHENOBARBITAL AND 5,6-BENZOFLAVONE, Method: PREINCUBATION) was “active; positive”. For the same compound, the mutagenic call (Test System: AMES SALMONELLA TYPHIMURIUM, Strain/Indicator: TA1535, Metabolic Activation: NONE, Method: STANDARD PLATE) was “active; positive” and the mutagenic call (Test System: AMES SALMONELLA TYPHIMURIUM, Strain/Indicator: TA1535, Metabolic Activation: RAT, LIVER, S-9, AROCLOR 1254, Method: STANDARD PLATE) was “active; positive”.
With `Cc1ccc2cc3c(ccc4ccccc43)c3c2c1C(O)C3` (stereo unspecified) the mutagenic call (Test System: CHINESE HAMSTER V-79, Strain/Indicator: V-79/8-AZAGUANINE, Metabolic Activation: RAT, LIVER, S-9, AROCLOR 1254, Method: STANDARD PLATE) was “active; positive”.
With `C1CCC(NC2CCCCC2)CC1` the mutagenic call (Test System: AMES SALMONELLA TYPHIMURIUM, Strain/Indicator: TA97, Metabolic Activation: HAMSTER, LIVER, S-9, AROCLOR 1254 (10%), Method: PREINCUBATION) was “inactive; negative”, the mutagenic call [1] was “inactive; negative” and the mutagenic call (Test System: AMES SALMONELLA TYPHIMURIUM, Strain/Indicator: TA97, Metabolic Activation: RAT, LIVER, S-9, AROCLOR 1254 (10%), Method: PREINCUBATION) was “inactive; negative”. The mutagenic call (Test System: AMES SALMONELLA TYPHIMURIUM, Strain/Indicator: TA98, Metabolic Activation: HAMSTER, LIVER, S-9, AROCLOR 1254 (10%), Method: PREINCUBATION) was “inactive; negative”, the mutagenic call (Test System: AMES SALMONELLA TYPHIMURIUM, Strain/Indicator: TA98, Metabolic Activation: NONE, Method: PREINCUBATION) was “inactive; negative” and the mutagenic call (Test System: AMES SALMONELLA TYPHIMURIUM, Strain/Indicator: TA98, Metabolic Activation: RAT LIVER S-9, PHENOBARBITAL AND BETA-NAPHTHOFLAVONE, Method: PREINCUBATION) was “inactive; negative”. The mutagenic call (Test System: AMES SALMONELLA TYPHIMURIUM, Strain/Indicator: TA98, Metabolic Activation: RAT, LIVER, S-9, AROCLOR 1254 (10%), Method: PREINCUBATION) was “inactive; negative”, the mutagenic call [2] was “inactive; negative” and the mutagenic call (Test System: AMES SALMONELLA TYPHIMURIUM, Strain/Indicator: TA100, Metabolic Activation: RAT LIVER S-9, PHENOBARBITAL AND BETA-NAPHTHOFLAVONE, Method: PREINCUBATION) was “inactive; negative”. The mutagenic call (Test System: AMES SALMONELLA TYPHIMURIUM, Strain/Indicator: TA100, Metabolic Activation: RAT, LIVER, S-9, AROCLOR 1254 (10%), Method: PREINCUBATION) was “inactive; negative”, the mutagenic call (Test System: AMES SALMONELLA TYPHIMURIUM, Strain/Indicator: TA1535, Metabolic Activation: RAT LIVER S-9, PHENOBARBITAL AND BETA-NAPHTHOFLAVONE, Method: PREINCUBATION) was “inactive; negative” and the mutagenic call (Test System: AMES SALMONELLA TYPHIMURIUM, Strain/Indicator: TA1537, Metabolic Activation: HAMSTER, LIVER, S-9, AROCLOR 1254 (10%), Method: PREINCUBATION) was “inactive; negative”. For the same compound, the mutagenic call (Test System: AMES SALMONELLA TYPHIMURIUM, Strain/Indicator: TA1537, Metabolic Activation: NONE, Method: PREINCUBATION) was “inactive; negative”, the mutagenic call (Test System: AMES SALMONELLA TYPHIMURIUM, Strain/Indicator: TA1537, Metabolic Activation: RAT LIVER S-9, PHENOBARBITAL AND BETA-NAPHTHOFLAVONE, Method: PREINCUBATION) was “inactive; negative” and the mutagenic call (Test System: AMES SALMONELLA TYPHIMURIUM, Strain/Indicator: TA1537, Metabolic Activation: RAT, LIVER, S-9, AROCLOR 1254 (10%), Method: PREINCUBATION) was “inactive; negative”. For the same compound, the mutagenic call (Test System: E.COLI, Strain/Indicator: WP2UVRA/PKM101, Metabolic Activation: NONE, Method: PREINCUBATION) was “inactive; negative” and the mutagenic call (Test System: E.COLI, Strain/Indicator: WP2UVRA/PKM101, Metabolic Activation: RAT LIVER S-9, PHENOBARBITAL AND BETA-NAPHTHOFLAVONE, Method: PREINCUBATION) was “inactive; negative”.
With `O=[N+]([O-])c1ccc2c3c(cccc13)C=C2` the mutagenic call [4] was “active; positive”.
